The values that follow come from patent publication US8846708B2, “Salt of a pyrimidin derivative” (Laboratorios Senosiain S.A. de C.V., priority 2010, dated 2014).

Series [1] is described as follows: physchem. The method, then: Additionally, a comparative solubility test was performed between rosuvastatin calcium and rosuvastatin lysine.
The conditions of series [2]: in vivo; cited from earlier work.
Series [3] can be described thus: Description / flowability of the salt powder. The class given is physicochemical.
Series [4] has as its system proteins. The settings on record: cited from earlier work.
For series [5] the following is noted: cited from earlier work.

One may read the solubility as the concentration that dissolves in the medium under given conditions.

As to `CC(C)c1nc(N(C)S(C)(=O)=O)nc(-c2ccc(F)cc2)c1/C=C/[C@@H](O)C[C@@H](O)CC(=O)O` [rosuvastatin calcium, (3R,5S,6E)-7-[4-(4-fluorophenyl)-2-(N-methylmethanesulfonamide)-6-(propan-2-yl)pyrimidin-5-yl]-3,5-dihydroxihept-6-enoic acid], in series [1], the “Solubility, HCl 10%” value is “It sticks to the bottom of the container” and the “Solubility, Methanol” value is on record as “Taffy”. For the same compound, the solubility in series [1] (aqueous buffer) came to 0.6 mg/mL. In addition, the solubility in series [1] (organic solvent or mixture) amounted to 10 mg/mL. The same compound came in with a solubility in series [1] (water) of 5.3 mg/mL. Besides, in series [2], the Absolute bioavailability result was “approximately 20%”, the Excretion in feces is listed as 90% and the Excretion in urine was 10%. The “Description: flowability” value in series [3] is recorded as “without flowability”. Besides, the Binding to proteins in series [4] was 88%.
Consider `CC(C)c1nc(N(C)S(C)(=O)=O)nc(-c2ccc(F)cc2)c1/C=C/[C@@H](O)C[C@@H](O)CC(=O)O` [Rosuvastatin, (3R,5S,6E)-7-[4-(4-fluorophenyl)-2-(N-methylmethanesulfonamide)-6-(propan-2-yl)pyrimidin-5-yl]-3,5-dihydroxihept-6-enoic acid], for which the “Solubility in water” value in series [5] is listed as “slightly soluble in water”.
